# Assay results published in ChEMBL document CHEMBL3425446, “Isolation, semi-synthesis and bio-evaluation of spatane derivatives from the brown algae Stoechospermum marginatum” (Bioorg Med Chem Lett, 2015).
# Active and inactive are the calls of the source. No cut-off for these calls is given here.
# Assays:
# [1] = test system: Escherichia coli; test: Antibacterial activity against Escherichia coli assessed as growth inhibition at 0.5 mg/ml after 24 hrs by well diffusion method; type: functional; conditions: read-out: DIZ
# [2] = test system: Bacillus subtilis; test: Antibacterial activity against Bacillus subtilis assessed as growth inhibition at 0.5 mg/ml after 24 hrs by well diffusion method; type: functional; conditions: read-out: DIZ
# [3] = test system: Micrococcus luteus; test: Antibacterial activity against Micrococcus luteus assessed as growth inhibition at 0.5 mg/ml after 24 hrs by well diffusion method; type: functional; conditions: read-out: DIZ
# [4] = test system: Klebsiella pneumoniae; test: Antibacterial activity against Klebsiella pneumoniae assessed as growth inhibition at 0.5 mg/ml after 24 hrs by well diffusion method; type: functional; conditions: read-out: DIZ
# [5] = test system: Escherichia coli; test: Antibacterial activity against Escherichia coli assessed as compound concentration required to complete growth inhibition at 8 hrs by tube dilution method; type: functional
# [6] = test system: Bacillus subtilis; test: Antibacterial activity against Bacillus subtilis assessed as compound concentration required to complete growth inhibition at 8 hrs by tube dilution method; type: functional
# [7] = test system: Micrococcus luteus; test: Antibacterial activity against Micrococcus luteus assessed as compound concentration required to complete growth inhibition at 8 hrs by tube dilution method; type: functional
# [8] = test system: Klebsiella pneumoniae; test: Antibacterial activity against Klebsiella pneumoniae assessed as compound concentration required to complete growth inhibition at 8 hrs by tube dilution method; type: functional
# [9] = test system: Aspergillus niger; test: Antifungal activity against Aspergillus niger assessed as growth inhibition at 0.5 mg/ml after 48 hrs by well diffusion method; type: functional, organism-based
# [10] = test system: Aspergillus fumigatus; test: Antifungal activity against Aspergillus fumigatus assessed as growth inhibition at 0.5 mg/ml after 48 hrs by well diffusion method; type: functional, organism-based
# [11] = test system: Aspergillus terreus; test: Antifungal activity against Aspergillus terreus assessed as growth inhibition at 0.5 mg/ml after 48 hrs by well diffusion method; type: functional, organism-based
# [12] = test system: THP-1; test: Cytotoxicity against human THP1 cells assessed as decrease in cell number after 24 hrs by MTT assay; type: functional, cell-based; conditions: THP-1, 24 h
# [13] = Cytotoxicity against human U937 cells assessed as decrease in cell number after 24 hrs by MTT assay; type: functional, cell-based; conditions: U-937, 24 h
# [14] = Cytotoxicity against mouse B16F10 cells assessed as decrease in cell number after 24 hrs by MTT assay; type: functional, cell-based; conditions: B16-F10, 24 h
# [15] = test system: COLO 205; test: Cytotoxicity against human COLO205 cells assessed as decrease in cell number after 24 hrs by MTT assay; type: functional, cell-based; conditions: COLO 205, 24 h
# [16] = Cytotoxicity against human HL60 cells assessed as decrease in cell number after 24 hrs by MTT assay; type: functional, cell-based; conditions: HL-60, 24 h
# [17] = test system: COLO 205; test: Cytotoxicity against human COLO205 cells assessed as growth inhibition at 200 ug/ml after 24 hrs by MTT assay; type: functional, cell-based
# [18] = test system: HL-60; test: Cytotoxicity against human HL60 cells assessed as growth inhibition at 200 ug/ml after 24 hrs by MTT assay; type: functional, cell-based
# [19] = test system: B16-F10; test: Cytotoxicity against mouse B16F10 cells assessed as growth inhibition at 200 ug/ml after 24 hrs by MTT assay; type: functional, cell-based
# [20] = test system: U-937; test: Cytotoxicity against human U937 cells assessed as growth inhibition at 200 ug/ml after 24 hrs by MTT assay; type: functional, cell-based
# [21] = test system: THP-1; test: Cytotoxicity against human THP1 cells assessed as growth inhibition at 200 ug/ml after 24 hrs by MTT assay; type: functional, cell-based
smiles,measurement,setting,value
C=C(C(=O)/C=C/C(C)=O)[C@@H]1CC(=O)[C@@]2(C)[C@@H]1[C@@H]1[C@H](C)CC[C@@H]12,zone of inhibition at 500 µg/mL,[1],11 mm
same,zone of inhibition at 500 µg/mL,[2],10.3 mm
same,zone of inhibition at 500 µg/mL,[3],0 mm
same,zone of inhibition at 500 µg/mL,[4],11.3 mm
same,MIC,[5],50 µg/mL
same,MIC,[6],50 µg/mL
same,MIC,[7],50 µg/mL
same,MIC,[8],50 µg/mL
same,zone of inhibition,[9],19.3 mm
same,zone of inhibition,[10],22 mm
same,zone of inhibition,[11],19.3 mm
same,IC50,[12],18.1 µg/mL
same,IC50,[13],7.52 µg/mL
same,IC50,[14],3.62 µg/mL
same,IC50,[15],32 µg/mL
same,IC50,[16],48.4 µg/mL
C=C(C(/C=C/C(C)(O)COC(C)=O)OC(C)=O)[C@@H]1C[C@@H](OC(C)=O)[C@@]2(C)[C@@H]1[C@@H]1[C@H](C)CC[C@@H]12 (stereo not given in full),zone of inhibition at 500 µg/mL,[1],21.3 mm
same,zone of inhibition at 500 µg/mL,[2],18 mm
same,zone of inhibition at 500 µg/mL,[3],17.3 mm
same,zone of inhibition at 500 µg/mL,[4],16.3 mm
same,MIC,[5],100 µg/mL
same,MIC,[6],100 µg/mL
same,MIC,[7],100 µg/mL
same,MIC,[8],200 µg/mL
same,IC50,[12],188 µg/mL
same,IC50,[13],38.4 µg/mL
same,IC50,[14],54.1 µg/mL
same,growth inhibition (GI),[17],inactive
same,growth inhibition (GI),[18],inactive
C=C(CC(=O)C=C(C)C)[C@@H]1CC(=O)[C@@]2(C)[C@@H]1[C@@H]1[C@H](C)CC[C@@H]12,zone of inhibition at 500 µg/mL,[1],10 mm
same,zone of inhibition at 500 µg/mL,[2],0 mm
same,zone of inhibition at 500 µg/mL,[3],11.3 mm
same,zone of inhibition at 500 µg/mL,[4],12.7 mm
same,MIC,[5],200 µg/mL
same,MIC,[6],400 µg/mL
same,MIC,[7],200 µg/mL
same,MIC,[8],200 µg/mL
same,IC50,[12],113 µg/mL
same,IC50,[13],47.5 µg/mL
same,IC50,[15],167 µg/mL
same,growth inhibition (GI),[19],inactive
same,growth inhibition (GI),[18],inactive
C=C(C/C=C/C(C)(C)O)[C@@H]1C[C@@H](O)[C@@]2(C)[C@@H]1[C@@H]1[C@H](C)CC[C@@H]12,zone of inhibition at 500 µg/mL,[1],12.7 mm
same,zone of inhibition at 500 µg/mL,[2],13.7 mm
same,zone of inhibition at 500 µg/mL,[3],16.3 mm
same,zone of inhibition at 500 µg/mL,[4],16 mm
same,MIC,[5],100 µg/mL
same,MIC,[6],100 µg/mL
same,MIC,[7],100 µg/mL
same,MIC,[8],100 µg/mL
same,IC50,[12],50 µg/mL
same,IC50,[13],42.3 µg/mL
same,IC50,[14],174 µg/mL
same,growth inhibition (GI),[17],inactive
same,growth inhibition (GI),[18],inactive
C=C(C(O)/C=C/C(C)(O)CO)[C@@H]1C[C@@H](O)[C@@]2(C)[C@@H]1[C@@H]1[C@H](C)CC[C@@H]12 (mixture of isomers),zone of inhibition at 500 µg/mL,[1],11.7 mm
same,zone of inhibition at 500 µg/mL,[2],12.7 mm
same,zone of inhibition at 500 µg/mL,[3],12.3 mm
same,zone of inhibition at 500 µg/mL,[4],12.3 mm
same,MIC,[5],200 µg/mL
same,MIC,[6],200 µg/mL
same,MIC,[7],200 µg/mL
same,MIC,[8],200 µg/mL
same,IC50,[12],55.6 µg/mL
same,IC50,[14],196 µg/mL
same,IC50,[15],17.4 µg/mL
same,growth inhibition (GI),[20],inactive
same,growth inhibition (GI),[18],inactive
C=C(C(O)/C=C/C(C)(O)COC(C)=O)[C@@H]1C[C@@H](O)[C@@]2(C)[C@@H]1[C@@H]1[C@H](C)CC[C@@H]12 (mixture of isomers),zone of inhibition at 500 µg/mL,[1],13 mm
same,zone of inhibition at 500 µg/mL,[2],10.3 mm
same,zone of inhibition at 500 µg/mL,[3],12 mm
same,zone of inhibition at 500 µg/mL,[4],12.3 mm
same,MIC,[5],200 µg/mL
same,MIC,[6],200 µg/mL
same,MIC,[7],400 µg/mL
same,MIC,[8],200 µg/mL
same,IC50,[12],67 µg/mL
same,IC50,[13],144 µg/mL
same,IC50,[14],99.8 µg/mL
same,growth inhibition (GI),[17],inactive
same,growth inhibition (GI),[18],inactive
C=C(C(/C=C/C(C)(O)COC(C)=O)OC(C)=O)[C@@H]1C[C@@H](O)[C@@]2(C)[C@@H]1[C@@H]1[C@H](C)CC[C@@H]12 (mixture of isomers),zone of inhibition at 500 µg/mL,[1],14.3 mm
same,zone of inhibition at 500 µg/mL,[2],11.7 mm
same,zone of inhibition at 500 µg/mL,[3],12.3 mm
same,zone of inhibition at 500 µg/mL,[4],12.7 mm
same,MIC,[5],100 µg/mL
same,MIC,[6],100 µg/mL
same,MIC,[7],100 µg/mL
same,MIC,[8],200 µg/mL
same,IC50,[14],82 µg/mL
same,growth inhibition (GI),[21],inactive
same,growth inhibition (GI),[20],inactive
same,growth inhibition (GI),[17],inactive
same,growth inhibition (GI),[18],inactive
C=C(C(O)/C=C/C(C)(O)COC(C)=O)[C@@H]1C[C@@H](OC(C)=O)[C@@]2(C)[C@@H]1[C@@H]1[C@H](C)CC[C@@H]12 (mixture of isomers),zone of inhibition at 500 µg/mL,[1],11.3 mm
same,zone of inhibition at 500 µg/mL,[2],14.3 mm
same,zone of inhibition at 500 µg/mL,[3],14.7 mm
same,zone of inhibition at 500 µg/mL,[4],10.7 mm
same,MIC,[5],50 µg/mL
same,MIC,[6],50 µg/mL
same,MIC,[7],50 µg/mL
same,MIC,[8],50 µg/mL
same,IC50,[12],14.2 µg/mL
same,IC50,[13],5.6 µg/mL
same,IC50,[14],3.45 µg/mL
same,IC50,[15],36.1 µg/mL
same,IC50,[16],41 µg/mL
C=C(C(O)/C=C/C(C)(O)COC(C)=O)[C@@H]1CC(=O)[C@@]2(C)[C@@H]1[C@@H]1[C@H](C)CC[C@@H]12 (mixture of isomers),zone of inhibition at 500 µg/mL,[1],0 mm
same,zone of inhibition at 500 µg/mL,[2],0 mm
same,zone of inhibition at 500 µg/mL,[3],0 mm
same,zone of inhibition at 500 µg/mL,[4],0 mm
same,MIC,[5],100 µg/mL
same,MIC,[6],100 µg/mL
same,MIC,[7],200 µg/mL
same,MIC,[8],200 µg/mL
same,IC50,[12],52 µg/mL
same,IC50,[13],43.6 µg/mL
same,IC50,[14],58.5 µg/mL
same,IC50,[16],43.9 µg/mL
same,growth inhibition (GI),[17],inactive
C=C(CC(C=C(C)C)OC(C)=O)[C@@H]1C[C@@H](OC(C)=O)[C@@]2(C)[C@@H]1[C@@H]1[C@H](C)CC[C@@H]12 (mixture of isomers),zone of inhibition at 500 µg/mL,[1],0 mm
same,zone of inhibition at 500 µg/mL,[2],11.3 mm
same,zone of inhibition at 500 µg/mL,[3],12.3 mm
same,zone of inhibition at 500 µg/mL,[4],12.3 mm
same,MIC,[5],400 µg/mL
same,MIC,[6],400 µg/mL
same,MIC,[7],400 µg/mL
same,MIC,[8],400 µg/mL
same,IC50,[12],77.8 µg/mL
same,IC50,[13],40.1 µg/mL
same,IC50,[14],29 µg/mL
same,IC50,[15],67.1 µg/mL
same,IC50,[16],84.9 µg/mL
C=C(C/C=C/C(C)(C)O)[C@@H]1C[C@@H](OC(C)=O)[C@@]2(C)[C@@H]1[C@@H]1[C@H](C)CC[C@@H]12 (mixture of isomers),zone of inhibition at 500 µg/mL,[1],13.3 mm
same,zone of inhibition at 500 µg/mL,[2],15.3 mm
same,zone of inhibition at 500 µg/mL,[3],15.3 mm
same,zone of inhibition at 500 µg/mL,[4],16 mm
same,MIC,[5],400 µg/mL
same,MIC,[6],200 µg/mL
same,MIC,[7],200 µg/mL
same,MIC,[8],200 µg/mL
same,IC50,[12],44.6 µg/mL
same,IC50,[13],48.5 µg/mL
same,IC50,[14],47.1 µg/mL
same,IC50,[15],64.7 µg/mL
same,IC50,[16],39.9 µg/mL
C=C(C)C(O)CCC(=C)[C@@H]1C[C@@H](OC(C)=O)[C@@]2(C)[C@@H]1[C@@H]1[C@H](C)CC[C@@H]12 (mixture of isomers),zone of inhibition at 500 µg/mL,[1],15.7 mm
same,zone of inhibition at 500 µg/mL,[2],13.7 mm
same,zone of inhibition at 500 µg/mL,[3],16.3 mm
same,zone of inhibition at 500 µg/mL,[4],19 mm
same,MIC,[5],100 µg/mL
same,MIC,[6],100 µg/mL
same,MIC,[7],50 µg/mL
same,MIC,[8],50 µg/mL
same,IC50,[12],58.1 µg/mL
same,IC50,[13],35.1 µg/mL
same,IC50,[14],104 µg/mL
same,IC50,[15],145 µg/mL
same,IC50,[16],157 µg/mL
C[C@@H]1C[C@@H]([C@H](O)CC2CC(=O)NC(=O)C2)C(=O)[C@@H](C)C1 [CYCLOHEXIMIDE],zone of inhibition,[9],17.7 mm
same,zone of inhibition,[10],16.3 mm
same,zone of inhibition,[11],15.7 mm
CC(=O)N1CCN(c2ccc(OCC3COC(Cn4ccnc4)(c4ccc(Cl)cc4Cl)O3)cc2)CC1 (stereo not given) [KETOCONAZOLE],zone of inhibition,[9],22.7 mm
same,zone of inhibition,[10],20.7 mm
same,zone of inhibition,[11],20 mm
